Reference: US20230085307A1, “PYRIDAZINONE COMPOUND AND HERBICIDE” (NISSAN CHEMICAL CORPORATION, priority 2019, published 2023)

Columns and labels:
chickweed [1] = assay: Test Example 4: herbicidal effect by soil treatment (Table 19, symbol P); assay type: in vivo, common chickweed (Stellaria media)
Procedure, shortened: (§1)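 Applied as a water-diluted emulsion, the compound was sprayed onto soil covering newly sown seeds. Evaluation came three weeks after application, in a greenhouse held at 25° C. to 30° C.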

rice flat sedge = assay: Test Example 3: herbicidal effect by foliage application, Wagner pot (Table 18, symbol E); assay type: in vivo, rice flat sedge (Cyperus iria)
Procedure, shortened: (§2)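 Plants were sown in alluvial soil held under 0.1–0.5 cm standing water and grown 14 days in a greenhouse at 25–30 °C. An emulsifiable formulation, water-diluted to the set dose, was then sprayed onto the foliage, and effects were scored three weeks later using previously defined criteria.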

wild oat [2] = assay: Test Example 4: herbicidal effect by soil treatment (Table 19, symbol I); assay type: in vivo, wild oat (Avena fatua)
Procedure, shortened: as §1

windgrass [3] = assay: Test Example 5: herbicidal effect by foliage application, plastic box (Table 20, symbol L); assay type: in vivo, windgrass (Apera spica-venti); settings: foliage application, 320 g/ha, evaluated three weeks after application
Procedure, shortened: (§3)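 Sow seeds spot-wise in sterilized diluvial soil; cover with ~1.5 cm soil. Grow 14 days in greenhouse, 25° C. to 30° C. Spray foliage with emulsion diluted to predetermined amount. Rate effect after 3 weeks.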

green foxtail [4] = assay: Test Example 4: herbicidal effect by soil treatment (Table 19, symbol G); assay type: in vivo, green foxtail (Setaria viridis)
Procedure, shortened: as §1

Chinese sprangletop = assay: Test Example 3: herbicidal effect by foliage application, Wagner pot (Table 18, symbol D); assay type: in vivo, chinese sprangletop (Leptochloa chinensis)
Procedure, shortened: as §2

persian speedwell [5] = assay: Test Example 4: herbicidal effect by soil treatment (Table 19, symbol R); assay type: in vivo, Persian speedwell (Veronica persica)
Procedure, shortened: as §1

windgrass [6] = assay: Test Example 4: herbicidal effect by soil treatment (Table 19, symbol L); assay type: in vivo, windgrass (Apera spica-venti)
Procedure, shortened: as §1

green foxtail [7] = assay: Test Example 5: herbicidal effect by foliage application, plastic box (Table 20, symbol G); assay type: in vivo, green foxtail (Setaria viridis); settings: foliage application, 320 g/ha, evaluated three weeks after application
Procedure, shortened: as §3

blackgrass [8] = assay: Test Example 4: herbicidal effect by soil treatment (Table 19, symbol J); assay type: in vivo, blackgrass (Alopecurus myosuroides)
Procedure, shortened: as §1

blackgrass [9] = assay: Test Example 5: herbicidal effect by foliage application, plastic box (Table 20, symbol J); assay type: in vivo, blackgrass (Alopecurus myosuroides); settings: foliage application, 320 g/ha, evaluated three weeks after application
Procedure, shortened: as §3

velvetleaf [10] = assay: Test Example 4: herbicidal effect by soil treatment (Table 19, symbol M); assay type: in vivo, velvetleaf (Abutilon theophrasti)
Procedure, shortened: as §1

barnyard grass [11] = assay: Test Example 3: herbicidal effect by foliage application, Wagner pot (Table 18, symbol H); assay type: in vivo, barnyard grass (Echinochloa crus-galli)
Procedure, shortened: as §2

chickweed [12] = assay: Test Example 5: herbicidal effect by foliage application, plastic box (Table 20, symbol P); assay type: in vivo, common chickweed (Stellaria media); settings: foliage application, 320 g/ha, evaluated three weeks after application
Procedure, shortened: as §3

barnyard grass [13] = assay: Test Example 4: herbicidal effect by soil treatment (Table 19, symbol H); assay type: in vivo, barnyard grass (Echinochloa crus-galli)
Procedure, shortened: as §1

redroot pigweed [14] = assay: Test Example 5: herbicidal effect by foliage application, plastic box (Table 20, symbol N); assay type: in vivo, redroot pigweed (Amaranthus retroflexus); settings: foliage application, 320 g/ha, evaluated three weeks after application
Procedure, shortened: as §3

redroot pigweed [15] = assay: Test Example 4: herbicidal effect by soil treatment (Table 19, symbol N); assay type: in vivo, redroot pigweed (Amaranthus retroflexus)
Procedure, shortened: as §1

southern crabgrass [16] = assay: Test Example 4: herbicidal effect by soil treatment (Table 19, symbol F); assay type: in vivo, southern crabgrass (Digitaria ciliaris)
Procedure, shortened: as §1

barnyard grass [17] = assay: Test Example 5: herbicidal effect by foliage application, plastic box (Table 20, symbol H); assay type: in vivo, barnyard grass (Echinochloa crus-galli); settings: foliage application, 320 g/ha, evaluated three weeks after application
Procedure, shortened: as §3

velvetleaf [18] = assay: Test Example 5: herbicidal effect by foliage application, plastic box (Table 20, symbol M); assay type: in vivo, velvetleaf (Abutilon theophrasti); settings: foliage application, 320 g/ha, evaluated three weeks after application
Procedure, shortened: as §3

Italian ryegrass [19] = assay: Test Example 4: herbicidal effect by soil treatment (Table 19, symbol K); assay type: in vivo, Italian ryegrass (Lolium multiflorum)
Procedure, shortened: as §1

wild oat [20] = assay: Test Example 5: herbicidal effect by foliage application, plastic box (Table 20, symbol I); assay type: in vivo, wild oat (Avena fatua); settings: foliage application, 320 g/ha, evaluated three weeks after application
Procedure, shortened: as §3

lambsquarters [21] = assay: Test Example 4: herbicidal effect by soil treatment (Table 19, symbol O); assay type: in vivo, lambsquarters (Chenopodium album)
Procedure, shortened: as §1

lambsquarters [22] = assay: Test Example 5: herbicidal effect by foliage application, plastic box (Table 20, symbol O); assay type: in vivo, lambsquarters (Chenopodium album); settings: foliage application, 320 g/ha, evaluated three weeks after application
Procedure, shortened: as §3

southern crabgrass [23] = assay: Test Example 5: herbicidal effect by foliage application, plastic box (Table 20, symbol F); assay type: in vivo, southern crabgrass (Digitaria ciliaris); settings: foliage application, 320 g/ha, evaluated three weeks after application
Procedure, shortened: as §3

persian speedwell [24] = assay: Test Example 5: herbicidal effect by foliage application, plastic box (Table 20, symbol R); assay type: in vivo, Persian speedwell (Veronica persica); settings: foliage application, 320 g/ha, evaluated three weeks after application
Procedure, shortened: as §3

Italian ryegrass [25] = assay: Test Example 5: herbicidal effect by foliage application, plastic box (Table 20, symbol K); assay type: in vivo, Italian ryegrass (Lolium multiflorum); settings: foliage application, 320 g/ha, evaluated three weeks after application
Procedure, shortened: as §3

[26] = amount of applied herbicide 320 g/ha

For `Cc1nn(C)c(=O)c(-c2c(-c3ccc(Cl)cc3)sc3ccc(Cl)cc23)c1O` [2-099], the “herbicidal effect rating, P: chickweed” value (chickweed [1]; 320 g/ha) was 4 (Herbicidal rate of 70% or more and less than 90%), the “herbicidal effect on E (rice flat sedge), rating 0-5” value (rice flat sedge; 320 g/ha) was 5 (Herbicidal rate of 90% or more (almost completely withered)) and the “herbicidal effect rating, I: wild oat” value (wild oat [2]; 320 g/ha) was 0 (Herbicidal rate of 5% or less (almost no effect)). For the same compound, the “herbicidal effect on L: windgrass” value (windgrass [3]) was 5 (Herbicidal rate of 90% or more (almost completely withered)), the “herbicidal effect rating, G: green foxtail” value (green foxtail [4]; 320 g/ha) was 2 (Herbicidal rate of 20% or more and less than 40%) and the “herbicidal effect on D (Chinese sprangletop), rating 0-5” value (Chinese sprangletop; 320 g/ha) was 4 (Herbicidal rate of 70% or more and less than 90%). The “herbicidal effect rating, R: persian speedwell” value (persian speedwell [5]; 320 g/ha) was 1 (Herbicidal rate of 5% or more and less than 20%), the “herbicidal effect rating, L: windgrass” value (windgrass [6]; 320 g/ha) was 4 (Herbicidal rate of 70% or more and less than 90%) and the “herbicidal effect on G: green foxtail” value (green foxtail [7]) was 5 (Herbicidal rate of 90% or more (almost completely withered)). For the same compound, the “herbicidal effect rating, J: blackgrass” value (blackgrass [8]; 320 g/ha) was 2 (Herbicidal rate of 20% or more and less than 40%), the “herbicidal effect on J: blackgrass” value (blackgrass [9]) was 4 (Herbicidal rate of 70% or more and less than 90%) and the “herbicidal effect rating, M: velvetleaf” value (velvetleaf [10]; 320 g/ha) was 0 (Herbicidal rate of 5% or less (almost no effect)). The “herbicidal effect on H (barnyard grass), rating 0-5” value (barnyard grass [11]; 320 g/ha) was 5 (Herbicidal rate of 90% or more (almost completely withered)), the “herbicidal effect on P: chickweed” value (chickweed [12]) was 5 (Herbicidal rate of 90% or more (almost completely withered)) and the “herbicidal effect rating, H: barnyard grass” value (barnyard grass [13]; 320 g/ha) was 0 (Herbicidal rate of 5% or less (almost no effect)). For the same compound, the “herbicidal effect on N: redroot pigweed” value (redroot pigweed [14]) was 5 (Herbicidal rate of 90% or more (almost completely withered)), the “herbicidal effect rating, N: redroot pigweed” value (redroot pigweed [15]; 320 g/ha) was 3 (Herbicidal rate of 40% or more and less than 70%) and the “herbicidal effect rating, F: southern crabgrass” value (southern crabgrass [16]; 320 g/ha) was 0 (Herbicidal rate of 5% or less (almost no effect)). For the same compound, the “herbicidal effect on H: barnyard grass” value (barnyard grass [17]) was 5 (Herbicidal rate of 90% or more (almost completely withered)), the “herbicidal effect on M: velvetleaf” value (velvetleaf [18]) was 5 (Herbicidal rate of 90% or more (almost completely withered)) and the “herbicidal effect rating, K: Italian ryegrass” value (Italian ryegrass [19]; 320 g/ha) was 5 (Herbicidal rate of 90% or more (almost completely withered)). For the same compound, the “herbicidal effect on I: wild oat” value (wild oat [20]) was 5 (Herbicidal rate of 90% or more (almost completely withered)), the “herbicidal effect rating, O: lambsquarters” value (lambsquarters [21]; 320 g/ha) was 3 (Herbicidal rate of 40% or more and less than 70%) and the “herbicidal effect on O: lambsquarters” value (lambsquarters [22]) was 5 (Herbicidal rate of 90% or more (almost completely withered)). For the same compound, the “herbicidal effect on F: southern crabgrass” value (southern crabgrass [23]) was 5 (Herbicidal rate of 90% or more (almost completely withered)), the “herbicidal effect on R: persian speedwell” value (persian speedwell [24]) was 5 (Herbicidal rate of 90% or more (almost completely withered)) and the “herbicidal effect on K: Italian ryegrass” value (Italian ryegrass [25]) was 5 (Herbicidal rate of 90% or more (almost completely withered)).
For `CCCC(=O)Oc1c(C)nn(C)c(=O)c1-c1c(-c2ccc(F)cc2)sc2ccc(C)cc12` [2-135], the “P: chickweed, herbicidal effect rating” value (chickweed [1]; [26]) was 3 (Herbicidal rate of 40% or more and less than 70%), the “herbicidal effect on E: rice flat sedge” value (rice flat sedge; [26]) was 3 (Herbicidal rate of 40% or more and less than 70%) and the “I: wild oat, herbicidal effect rating” value (wild oat [2]; [26]) was 0 (Herbicidal rate of 5% or less (almost no effect)). The “herbicidal effect on L: windgrass” value (windgrass [3]) was 0 (Herbicidal rate of 5% or less (almost no effect)), the “G: green foxtail, herbicidal effect rating” value (green foxtail [4]; [26]) was 0 (Herbicidal rate of 5% or less (almost no effect)) and the “herbicidal effect on D: Chinese sprangletop” value (Chinese sprangletop; [26]) was 0 (Herbicidal rate of 5% or less (almost no effect)). The “R: persian speedwell, herbicidal effect rating” value (persian speedwell [5]; [26]) was 0 (Herbicidal rate of 5% or less (almost no effect)), the “L: windgrass, herbicidal effect rating” value (windgrass [6]; [26]) was 0 (Herbicidal rate of 5% or less (almost no effect)) and the “herbicidal effect on G: green foxtail” value (green foxtail [7]) was 0 (Herbicidal rate of 5% or less (almost no effect)). For the same compound, the “J: blackgrass, herbicidal effect rating” value (blackgrass [8]; [26]) was 0 (Herbicidal rate of 5% or less (almost no effect)), the “herbicidal effect on J: blackgrass” value (blackgrass [9]) was 0 (Herbicidal rate of 5% or less (almost no effect)) and the “M: velvetleaf, herbicidal effect rating” value (velvetleaf [10]; [26]) was 0 (Herbicidal rate of 5% or less (almost no effect)). The “herbicidal effect on H: barnyard grass” value (barnyard grass [11]; [26]) was 1 (Herbicidal rate of 5% or more and less than 20%), the “herbicidal effect on P: chickweed” value (chickweed [12]) was 5 (Herbicidal rate of 90% or more (almost completely withered)) and the “H: barnyard grass, herbicidal effect rating” value (barnyard grass [13]; [26]) was 0 (Herbicidal rate of 5% or less (almost no effect)). The “herbicidal effect on N: redroot pigweed” value (redroot pigweed [14]) was 5 (Herbicidal rate of 90% or more (almost completely withered)), the “N: redroot pigweed, herbicidal effect rating” value (redroot pigweed [15]; [26]) was 0 (Herbicidal rate of 5% or less (almost no effect)) and the “F: southern crabgrass, herbicidal effect rating” value (southern crabgrass [16]; [26]) was 0 (Herbicidal rate of 5% or less (almost no effect)). The “herbicidal effect on H: barnyard grass” value (barnyard grass [17]) was 0 (Herbicidal rate of 5% or less (almost no effect)), the “herbicidal effect on M: velvetleaf” value (velvetleaf [18]) was 4 (Herbicidal rate of 70% or more and less than 90%) and the “K: Italian ryegrass, herbicidal effect rating” value (Italian ryegrass [19]; [26]) was 1 (Herbicidal rate of 5% or more and less than 20%). For the same compound, the “herbicidal effect on I: wild oat” value (wild oat [20]) was 0 (Herbicidal rate of 5% or less (almost no effect)), the “O: lambsquarters, herbicidal effect rating” value (lambsquarters [21]; [26]) was 0 (Herbicidal rate of 5% or less (almost no effect)) and the “herbicidal effect on O: lambsquarters” value (lambsquarters [22]) was 3 (Herbicidal rate of 40% or more and less than 70%). The “herbicidal effect on F: southern crabgrass” value (southern crabgrass [23]) was 0 (Herbicidal rate of 5% or less (almost no effect)), the “herbicidal effect on R: persian speedwell” value (persian speedwell [24]) was 1 (Herbicidal rate of 5% or more and less than 20%) and the “herbicidal effect on K: Italian ryegrass” value (Italian ryegrass [25]) was 3 (Herbicidal rate of 40% or more and less than 70%).
